Test [1] has as its system E. coli 25922. The experiment in a line: Antibacterial activity, microbroth dilution MIC (Table 1). Format: cell-based, Escherichia coli. The note with it: Escherichia coli; microbroth dilution; control Gram-negative E. coli 25922 strain; read-out: MIC, 25922. The method, boiled down: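 Each strain is exposed to test compound in a microbroth dilution series; visible growth is scored macroscopically, and the lowest growth-free concentration is recorded as MIC in μg/mL.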
(In general: In broth dilution the organism is exposed to a series of concentrations in liquid medium.)

For test [2], the system named is Staphylococcus aureus (S. aureus) 29213. The description is as above. The note with it: microbroth dilution, Gram-positive S. aureus 29213, read-out: MIC, 29213. Format: cell-based. The method, boiled down: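 MIC (μg/mL) is taken as the lowest concentration with no macroscopically visible growth. Strains tested by microbroth dilution: Gram-positive S. aureus 29213, control Gram-negative E. coli 25922, and super-sensitive E. coli BAS849.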

The test system of test [3] is Escherichia coli (E. coli) BAS849. The description is as above. Format: cell-based. The conditions noted are these: microbroth dilution, super sensitive Gram-negative E. coli BAS849, read-out: MIC, BAS849. The method, boiled down: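 Growth inhibition by microbroth dilution. MIC = lowest μg/mL with no visible growth. Strain 25922 is the control Gram-negative; BAS849 is hypersensitive.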

In test [4] the test system is Pseudomonas aeruginosa (P. aeruginosa) 27853. The experiment in a line: Antibacterial activity, MIC (Table 5). The conditions noted are these: P. aeruginosa 27853, read-out: MIC, 27853. Format: cell-based. The method, boiled down:
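Values are MICs in μg/mL, read as the lowest concentration at which no growth is visible by eye. They were determined by a microbroth dilution method.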

Test [5] relates to E. coli LZ3111. The experiment in a line: Antibacterial activity, MIC, quinolone resistant strain (Table 2). Format: cell-based. The note with it: Escherichia coli, LZ3111, read-out: MIC LZ3111. The method, boiled down:
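MIC values (μg/mL) came from a microbroth dilution assay, scored as the lowest drug concentration at which no growth was visible by eye.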

The subject of test [6] is Acinetobacter baumannii (A. baumannii) BAA747. The experiment in a line: Antibacterial activity, MIC (Table 4). Format: cell-based. The conditions noted are these: A. baumannii BAA747, read-out: MIC, BAA747. The method, boiled down: (§1)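 MIC (μg/mL) by microbroth dilution, taken as the lowest drug concentration preventing macroscopically visible growth. MXX strains are multi-drug resistant clinical isolates.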

Test [7] deals with Klebsiella pneumoniae (K. pneumoniae) 35657. The experiment in a line: Antibacterial activity, MIC (Table 4). The class given is cell-based. The note with it: K. pneumoniae 35657, read-out: MIC, 35657. The method, boiled down:
as §1

Test [8] relates to K. pneumoniae MXX1232. The experiment in a line: Antibacterial activity, MIC, resistant strain (Table 4). The class given is cell-based. The conditions noted are these: Klebsiella pneumoniae, MXX1232; resistant K. pneumoniae MMX1232, multi-drug resistant clinical isolate; read-out: MIC, MMX1232. The method, boiled down:
as §1

The test system of test [9] is A. baumannii MXX2240. The description is as above. The note with it: Acinetobacter baumannii, MXX2240; resistant A. baumannii MMX2240, multi-drug resistant clinical isolate; read-out: MIC, MMX2240. The class given is cell-based. The method, boiled down:
as §1

The MIC is the smallest concentration in the dilution series that meets the test's criterion for growth inhibition.

In brackets after ≈: the same amount, converted by molar mass. A value given as a limit tells only on which side of the number the result lay.

Turning to `CCc1c(-c2ccc3cn[nH]c3c2)[nH]c(=O)c(C(=O)O)c1O` [Cpd 391, 5-ethyl-4-hydroxy-6-(1H-indazol-6-yl)-2-oxo-1,2-dihydropyridine-3-carboxylic acid], the MIC is 12.5 to 150 µg/mL (≈ 41.8 to 501 µM) in test [1]; 12.5 to 150 µg/mL (≈ 41.8 to 501 µM) in test [2]; 3.5 to 12.5 µg/mL (≈ 11.7 to 41.8 µM) in test [3]; 12.5 to 150 µg/mL (≈ 41.8 to 501 µM) in [4]; 3.5 to 12.5 µg/mL (≈ 11.7 to 41.8 µM) in [5]; 12.5 to 150 µg/mL (≈ 41.8 to 501 µM) in [6]. For the same compound, the MIC in [7] lay in the range of 3.5 to 12.5 µg/mL (≈ 11.7 to 41.8 µM); in test [8] it was 12.5 to 150 µg/mL (≈ 41.8 to 501 µM); in test [9] it was 12.5 to 150 µg/mL (≈ 41.8 to 501 µM).

`CCc1c(-c2ccc3[nH]ncc3c2)[nH]c(=O)c(C(=O)O)c1O` [Cpd 392, 5-ethyl-4-hydroxy-6-(1H-indazol-5-yl)-2-oxo-1,2-dihydropyridine-3-carboxylic acid]: the MIC in test [1] was in the range of 12.5 to 150 µg/mL (≈ 41.8 to 501 µM); in [2], 12.5 to 150 µg/mL (≈ 41.8 to 501 µM); in [3], 3.5 to 12.5 µg/mL (≈ 11.7 to 41.8 µM); in [4], 12.5 to 150 µg/mL (≈ 41.8 to 501 µM); in test [5], 3.5 to 12.5 µg/mL (≈ 11.7 to 41.8 µM); in [6] it was 12.5 to 150 µg/mL (≈ 41.8 to 501 µM). In addition, the MIC in test [7] was 3.5 to 12.5 µg/mL (≈ 11.7 to 41.8 µM); in test [8], 12.5 to 150 µg/mL (≈ 41.8 to 501 µM); in [9], 12.5 to 150 µg/mL (≈ 41.8 to 501 µM).

Turning to `CCc1c(-c2ccc3nn(C)cc3c2)[nH]c(=O)c(C(=O)O)c1O` [Cpd 393, 5-ethyl-4-hydroxy-6-(2-methyl-2H-indazol-5-yl)-2-oxo-1,2-dihydropyridine-3-carboxylic acid], the MIC in test [1] is 3.5 to 12.5 µg/mL (≈ 11.2 to 39.9 µM); in test [2], 12.5 to 150 µg/mL (≈ 39.9 to 479 µM); in test [3] it was under 1 µg/mL; in test [4], 12.5 to 150 µg/mL (≈ 39.9 to 479 µM); in test [5] it was 3.5 to 12.5 µg/mL (≈ 11.2 to 39.9 µM); in test [6] it was 3.5 to 12.5 µg/mL (≈ 11.2 to 39.9 µM). In addition, the figures for the MIC in [7], in test [8] and in [9] were 12.5 to 150 µg/mL (≈ 39.9 to 479 µM), 12.5 to 150 µg/mL (≈ 39.9 to 479 µM) and 3.5 to 12.5 µg/mL (≈ 11.2 to 39.9 µM), respectively.

Consider `Cc1c(-c2ccc3c(cnn3C)c2)[nH]c(=O)c(C(=O)O)c1O` [Cpd 394, 4-hydroxy-5-methyl-6-(1-methyl-1H-indazol-5-yl)-2-oxo-1,2-dihydropyridine-3-carboxylic acid], for which the MIC in test [1] was 12.5 to 150 µg/mL (≈ 41.8 to 501 µM); in test [2], 12.5 to 150 µg/mL (≈ 41.8 to 501 µM); in test [3] it was 3.5 to 12.5 µg/mL (≈ 11.7 to 41.8 µM); in [4], 12.5 to 150 µg/mL (≈ 41.8 to 501 µM); in [5] it was under 1 µg/mL; in [6] it was 12.5 to 150 µg/mL (≈ 41.8 to 501 µM). The MIC in test [7] is 12.5 to 150 µg/mL (≈ 41.8 to 501 µM); in [8], 12.5 to 150 µg/mL (≈ 41.8 to 501 µM); in test [9], under 1 µg/mL.

`Cc1c(-c2ccc3nn(C)cc3c2)[nH]c(=O)c(C(=O)O)c1O` [Cpd 395, 4-hydroxy-5-methyl-6-(2-methyl-2H-indazol-5-yl)-2-oxo-1,2-dihydropyridine-3-carboxylic acid]: the MIC lay in the range of 12.5 to 150 µg/mL (≈ 41.8 to 501 µM) in [1]; 3.5 to 12.5 µg/mL (≈ 11.7 to 41.8 µM) in test [2]; 12.5 to 150 µg/mL (≈ 41.8 to 501 µM) in test [3]; 12.5 to 150 µg/mL (≈ 41.8 to 501 µM) in [4]; 1 to 3.5 µg/mL (≈ 3.34 to 11.7 µM) in [5]; 12.5 to 150 µg/mL (≈ 41.8 to 501 µM) in test [6]. Also, the values for the minimal inhibitory concentration (MIC) in [7], in [8] and in test [9] were 12.5 to 150 µg/mL (≈ 41.8 to 501 µM), 12.5 to 150 µg/mL (≈ 41.8 to 501 µM) and 3.5 to 12.5 µg/mL (≈ 11.7 to 41.8 µM), respectively.

Regarding `Cc1c(-c2ccc3cnn(C)c3c2)[nH]c(=O)c(C(=O)O)c1O` [Cpd 396, 4-hydroxy-5-methyl-6-(1-methyl-1H-indazol-6-yl)-2-oxo-1,2-dihydropyridine-3-carboxylic acid], the MIC in test [1] was 12.5 to 150 µg/mL (≈ 41.8 to 501 µM); in test [2], 12.5 to 150 µg/mL (≈ 41.8 to 501 µM); in [3] it was 12.5 to 150 µg/mL (≈ 41.8 to 501 µM); in test [4], 12.5 to 150 µg/mL (≈ 41.8 to 501 µM); in test [5], 1 to 3.5 µg/mL (≈ 3.34 to 11.7 µM); in test [6] it was 12.5 to 150 µg/mL (≈ 41.8 to 501 µM). For the same compound, the MIC in test [7] was in the range of 12.5 to 150 µg/mL (≈ 41.8 to 501 µM); in [8] it was 12.5 to 150 µg/mL (≈ 41.8 to 501 µM); in test [9], 3.5 to 12.5 µg/mL (≈ 11.7 to 41.8 µM).

As for `Cc1c(-c2ccc3cn(C)nc3c2)[nH]c(=O)c(C(=O)O)c1O` [Cpd 397, 4-hydroxy-5-methyl-6-(2-methyl-2H-indazol-6-yl)-2-oxo-1,2-dihydropyridine-3-carboxylic acid], the MIC in test [1] is 12.5 to 150 µg/mL (≈ 41.8 to 501 µM); in test [2] it was 12.5 to 150 µg/mL (≈ 41.8 to 501 µM); in test [3] it was 12.5 to 150 µg/mL (≈ 41.8 to 501 µM); in test [4], 12.5 to 150 µg/mL (≈ 41.8 to 501 µM); in test [5] it was 1 to 3.5 µg/mL (≈ 3.34 to 11.7 µM); in test [6], 12.5 to 150 µg/mL (≈ 41.8 to 501 µM). For the same compound, the MIC in test [7] lay in the range of 12.5 to 150 µg/mL (≈ 41.8 to 501 µM); in [8], 12.5 to 150 µg/mL (≈ 41.8 to 501 µM); in test [9], 3.5 to 12.5 µg/mL (≈ 11.7 to 41.8 µM).

For `Cc1c(-c2ccc3[nH]ncc3c2)[nH]c(=O)c(C(=O)O)c1O` [Cpd 398, 4-hydroxy-6-(1H-indazol-5-yl)-5-methyl-2-oxo-1,2-dihydropyridine-3-carboxylic acid], the MIC in test [1] is 12.5 to 150 µg/mL (≈ 43.8 to 526 µM); in [2], 12.5 to 150 µg/mL (≈ 43.8 to 526 µM); in [3] it was 12.5 to 150 µg/mL (≈ 43.8 to 526 µM); in test [4], 12.5 to 150 µg/mL (≈ 43.8 to 526 µM); in test [5] it was 3.5 to 12.5 µg/mL (≈ 12.3 to 43.8 µM); in test [6] it was 12.5 to 150 µg/mL (≈ 43.8 to 526 µM). The MIC in test [7], in [8] and in test [9] was 12.5 to 150 µg/mL (≈ 43.8 to 526 µM) each time.

For the origin of these results see US9409905B2, “Antibacterial compounds and methods for use” (PTC THERAPEUTICS, INC., priority 2011, dated 2016).
